Measurements from BindingDB's records for doi:10.1021/jm00043a011 (University of Athens, 1994).
*1 amine or outer side, *2 acyl side, *3 side chain or, on linkers, in order; H or OH if unused. Where a SMILES comes first, the peptide text is derived from it. [ ]: non-standard residue; d: D form. PheΨ(PO2HCH2)Gly = O=C(CCP(=O)(O)[C@H](Cc1ccccc1)N[*:1])[*:2]; X2 = O=C(CCP(=O)(O)[C@@H](Cc1ccccc1)N[*:1])[*:2]; X1 = O=C(CCP(O)(O)=C(Cc1ccccc1)N[*:1])[*:2]; Nle = CCCC[C@H](N)C(=O)O

test: Binding constant containing a pseudophenylalanine residue

Row | Structure (SMILES) | Ki [µM]
1 | CCCCC1NC(=O)[C@H]2CCCN2C(=O)CCP(=O)(O)[C@@H](Cc2ccccc2)NC(=O)[C@@H]2CCCN2C(=O)CCNC1=O (stereo partly drawn) [(6S,9S,22R)-6-Benzyl-19-butyl-5-hydroxy-5-oxo-1,7,13,17,20-pentaaza-5lambda*5*-phospha-tricyclo[20.3.0.0*9,13*]pentacosane-2,8,14,18,21-pentaone] | 0.09

test: as above; remark: another data set of the same source

Row | Structure (SMILES) | Ki [µM]
2 | CCCC[C@@H]1NC(=O)[C@@H]2CCCN2C(=O)CCP(O)(O)=C(Cc2ccccc2)NC(=O)[C@@H]2CCCN2C(=O)CNC1=O (cyclo(GP[X1]P[Nle])) | 0.12

test: Inhibition of bacterial collagenase from corynebacterium rathaii

Row | Structure (SMILES) | Ki [µM]
3 | CCCC[C@@H]1NC(=O)[C@@H]2CCCN2C(=O)CCP(O)(O)=C(Cc2ccccc2)NC(=O)[C@@H]2CCCN2C(=O)[C@H](CO)NC1=O (cyclo([Nle]SP[X1]P)) | 25
4 | COC(=O)[C@H]1CSSC[C@@H](NC(C)=O)C(=O)N2CCC[C@@H]2C(=O)N[C@@H](Cc2ccccc2)P(=O)(O)CCC(=O)N2CCC[C@@H]2C(=O)N1 | 45
5 | O=C1NCC(=O)N2CCC[C@H]2C(=O)N[C@@H](Cc2ccccc2)P(=O)(O)CCC(=O)N2CCC[C@@H]12 | 9
6 | CCCC[C@@H]1NC(=O)[C@@H]2CCCN2C(=O)CCP(=O)(O)[C@H](Cc2ccccc2)NC(=O)[C@@H]2CCCN2C(=O)[C@H](CO)NC1=O (cyclo([Nle]SP[PheΨ(PO2HCH2)Gly]P)) | 40
7 | O=C1NCC(=O)N2CCC[C@H]2C(O)N=C(Cc2ccccc2)P(O)(O)=CCC(=O)N2CCC[C@@H]12 (stereo partly drawn) | 6
8 | C[C@@H]1NC(=O)[C@@H]2CCCN2C(=O)[C@H](C)NC(=O)CCP(=O)(O)[C@@H](Cc2ccccc2)NC(=O)[C@@H]2CCCN2C(=O)CNC1=O (cyclo(AGP[X2]AP)) | 12
9 | C[C@@H]1NC(=O)[C@@H]2CCCN2C(=O)[C@H](C)NC(=O)CCP(=O)(O)[C@H](Cc2ccccc2)NC(=O)[C@@H]2CCCN2C(=O)CNC1=O (cyclo(AGP[PheΨ(PO2HCH2)Gly]AP)) | 20
10 | CCCCC1NC(=O)[C@H]2CCCN2C(=O)CCP(=O)(O)[C@@H](Cc2ccccc2)NC(=O)[C@@H]2CCCN2C(=O)CCNC1=O (stereo partly drawn) [(6S,9S,22R)-6-Benzyl-19-butyl-5-hydroxy-5-oxo-1,7,13,17,20-pentaaza-5lambda*5*-phospha-tricyclo[20.3.0.0*9,13*]pentacosane-2,8,14,18,21-pentaone] | 0.09
11 | CCCC[C@@H]1NC(=O)[C@@H]2CCCN2C(=O)CCP(=O)(O)[C@H](Cc2ccccc2)NC(=O)[C@@H]2CCCN2C(=O)CNC1=O | 0.18
12 | CCCC[C@@H]1NC(=O)[C@@H]2CCCN2C(=O)CCP(O)(O)=C(Cc2ccccc2)NC(=O)[C@@H]2CCCN2C(=O)CNC1=O (cyclo(GP[X1]P[Nle])) | 0.12
13 | COC(=O)[C@@H]1CSSC[C@H](NC(C)=O)C(=O)N2CCC[C@H]2C(=O)N[C@H](Cc2ccccc2)P(=O)(O)CCC(=O)N2CCC[C@H]2C(=O)N1 | 3
